Patent publication US20100196287A1, “Compositions Comprising Perhydrolases and Alkylene Glycol Diacetates” (priority 2007, published 2010)

Columns and labels:
[1] = Washing test on stained fabric with perhydrolase and substrate, blueberry stain; settings: 50 mM substrate, 60 min., 40° C.; in comparison with methyl acetate; FIG. 1
Method: (§1) • blueberry juice on cotton: product no. C15 from CFT B. V. Vlaardingen, Holland • tea on cotton: product no. 167, Eidgenössische Material- and Prüfanstalt (EMPA) Testmaterialien AG, St. Gallen, Switzerland
(§2) After incubation, the stains were washed three times (3×), dried and fixed. Intensity was measured with a colorimeter Cm508d (Minolta). For this test, round pieces of the test fabric (diameter 10 mm) were incubated in 1 ml alkaline solution in a 24 well microtitration plate. Each test was carried out as a triple determination against a triply determined control. After washing, the degree of whiteness of the washed fabrics was measured in comparison with a whiteness standard (d/8, Ø 8 mm, SCl/SCE), which had been set at 100% (L-value determination). The measurement was made using a colorimeter (Minolta Cm508d) with a light setting of 10°/D65. The results were expressed as percent power, wherein the difference of the reflectance value of the base washing agent without enzymes but with substrate was normalized to 100% (with the comparison substrate methyl acetate).

[2] = Toxicity (statement); settings: in contrast to methyl acetate
[3] = Washing test on stained fabric with perhydrolase and substrate, tea stain; settings: 50 mM substrate, 60 min., 40° C.; in comparison with methyl acetate; FIG. 1
Method: as §1, §2

[4] = Water solubility (statement); type: physicochemical; settings: in contrast to methyl acetate

Compound | washing power for blueberry stains [1] | toxicity [2] | washing power for tea stains [3] | water solubility [4]
CC(=O)OCCOC(C)=O [Ethylene glycol diacetate] | comparable | non-toxic | significantly better | 
CC(=O)OCC(C)OC(C)=O (stereo not shown) [Propylene glycol diacetate] | comparable | non-toxic | comparable | highly water-soluble
